From US6642180B1, “Biphenyl-substituted cyclic ketoenols as pesticides” (Bayer Aktiengesellschaft, priority 1999, dated 2003)

Legend:
Format in all cases: in vivo
[1] = system: Setaria; test: Pre-emergence test (greenhouse); conditions: 250 g ai./ha, after 3 weeks
Description: (§1) Solvent: 5 parts by weight of acetone
(§2) Emulsifier: 1 part by weight of alkylaryl polyglycol ether
(§3) To produce a suitable preparation of active compound, 1 part by weight of active compound is mixed with the stated amount of solvent, with the stated amounts of emulsifiers added and the concentrate is diluted with water to the desired concentration.
(§4) Seeds of the test plants are sown in normal soil. After about 24 hours, the soil is sprayed with the preparation of active compound such that the particular amounts of active compound desired are applied per unit area. The concentration of the spray liquor is chosen such that the particular amounts of active compound desired are applied in 1000 l of water/ha.
(§5) After 3 weeks, the degree of damage to the plants is rated in % damage in comparison to the development of the untreated control.
(§6) 0%=no effect (like untreated control)

[2] = system: Abutilon; test: Pre-emergence test (greenhouse); conditions: 250 g ai./ha, after 3 weeks
Description: as §1, §2, §3, §4, §5, §6

[3] = system: Echinochloa; test: Pre-emergence test (greenhouse); conditions: 250 g ai./ha, after 3 weeks
Description: as §1, §2, §3, §4, §5, §6

[4] = system: Alopecurus; test: Pre-emergence test (greenhouse); conditions: 250 g ai./ha, after 3 weeks
Description: as §1, §2, §3, §4, §5, §6

[5] = system: Avena fatua; test: Pre-emergence test (greenhouse); conditions: 250 g ai./ha, after 3 weeks
Description: as §1, §2, §3, §4, §5, §6

[6] = system: Meloidogyne incognita; test: Meloidogyne test; conditions: sand, Meloidogyne incognita egg/larvae suspension, lettuce
Description: Solvent: 7 parts by weight of dimethylformamide
(§7) Emulsifier: 1 parts by weight of alkylaryl polyglycol ether
To produce a suitable preparation of active compound, 1 part by weight of active compound is mixed with the stated amounts of solvent and emulsifier, and the concentrate is diluted with water to the desired concentration.
Containers are filled with sand, solution of active compound, Meloidogyne incognita-egg/larvae suspension and lettuce seeds. The lettuce seeds germinate and the plants develop. On the roots, galls are formed.
After the desired period of time, the nematicidal action is determined in % by the gall formation. 100% means that no galls were found; 0% means that the number of galls on the treated plants corresponds to that of the untreated control.

[7] = system: Setaria; test: Post-emergence test (greenhouse); conditions: 250 g ai./ha, after three weeks
Description: as §1, §7
(§8) To produce a suitable preparation of active compound, 1 part by weight of active compound is mixed with the stated amount of solvent, the stated amount of emulsifier is added and the concentrate is diluted with water to the desired concentration.
as §4, with “Test plants” for “Seeds”, “a height of 5-15 cm” for “the test plants”, “are” for “are sown in normal soil. After about 24 hours, the soil is”
(§9) After three weeks, the degree of damage to the plants is rated in % damage in comparison to the development of the untreated control.
(§10) 0% no effect (like untreated control)
(§11) Post-emergence/greenhouse

[8] = system: Sugar beet; test: Post-emergence test (greenhouse); conditions: 250 g ai./ha, after three weeks
Description: as §1, §7, §8
as §4, with “Test plants” for “Seeds”, “a height of 5-15 cm” for “the test plants”, “are” for “are sown in normal soil. After about 24 hours, the soil is”
as §9, §10, §11

[9] = system: Echinochloa; test: Post-emergence test (greenhouse); conditions: 250 g ai./ha, after three weeks
Description: as §1, §7, §8
as §4, with “Test plants” for “Seeds”, “a height of 5-15 cm” for “the test plants”, “are” for “are sown in normal soil. After about 24 hours, the soil is”
as §9, §10, §11

[10] = system: Alopecurus; test: Post-emergence test (greenhouse); conditions: 250 g ai./ha, after three weeks
Description: as §1, §7, §8
as §4, with “Test plants” for “Seeds”, “a height of 5-15 cm” for “the test plants”, “are” for “are sown in normal soil. After about 24 hours, the soil is”
as §9, §10, §11

[11] = system: larvae of the mustard beetle (Phaedon cochleariae); test: Phaedon-larvae test; conditions: cabbage leaves dipped
Description: Phaedon-larvae Test Solvent: 7 parts by weight of dimethylformamide Emulsifier: 1 part by weight of alkylaryl polyglycol ether To produce a suitable preparation of active compound, 1 part by weight of active compound is mixed with a stated amount of solvent and emulsifier, and the concentrate is diluted with emulsifier-containing water to the desired concentration. Cabbage leaves (Brassica oleracea) are treated by being dipped into the preparation of active compound of the desired concentration and are populated with larvae of the mustard beetle (Phaedon cochleariae) while the leaves are still moist.

COC(=O)N(C)COC1=C(c2c(C)cc(-c3ccc(Cl)cc3)cc2C)C(=O)CC(C)(C)C1 [Example I-8-1]
degree of damage to the plants, Setaria [1]: 100%
degree of damage to the plants, Abutilon [2]: 80%
degree of damage to the plants, Echinochloa [3]: 100%
degree of damage to the plants, Alopecurus [4]: 90%
degree of damage to the plants, Avena fatua [5]: 90%
activity (nematicidal action by gall formation) [6]: good activity
degree of damage to the plants, Setaria [7]: 100%
degree of damage to the plants, Sugar beet [8]: 0%
degree of damage to the plants, Echinochloa [9]: 100%
degree of damage to the plants, Alopecurus [10]: 80%
activity (kill of beetle larvae) [11]: good activity
